In patent publication US7012098B2, “Inhibitors of inducible nitric oxide synthase for chemoprevention and treatment of cancers” (Pharmacia Corporation, priority 2001, dated 2006):
Structures can show the parent of a compound that is named as a salt.

Columns and labels:
COX-1 = biological target: T1, COX-1 (Rattus norvegicus, UniProt Q63921); assay: Colonic mucosal COX-1 activity after dietary treatment; format: in vivo, male F344 rats; conditions: 100 ppm in diet; AOM-treated rats, colonic mucosa; Mean ± SEM
T1 sequence (Q63921 27-602): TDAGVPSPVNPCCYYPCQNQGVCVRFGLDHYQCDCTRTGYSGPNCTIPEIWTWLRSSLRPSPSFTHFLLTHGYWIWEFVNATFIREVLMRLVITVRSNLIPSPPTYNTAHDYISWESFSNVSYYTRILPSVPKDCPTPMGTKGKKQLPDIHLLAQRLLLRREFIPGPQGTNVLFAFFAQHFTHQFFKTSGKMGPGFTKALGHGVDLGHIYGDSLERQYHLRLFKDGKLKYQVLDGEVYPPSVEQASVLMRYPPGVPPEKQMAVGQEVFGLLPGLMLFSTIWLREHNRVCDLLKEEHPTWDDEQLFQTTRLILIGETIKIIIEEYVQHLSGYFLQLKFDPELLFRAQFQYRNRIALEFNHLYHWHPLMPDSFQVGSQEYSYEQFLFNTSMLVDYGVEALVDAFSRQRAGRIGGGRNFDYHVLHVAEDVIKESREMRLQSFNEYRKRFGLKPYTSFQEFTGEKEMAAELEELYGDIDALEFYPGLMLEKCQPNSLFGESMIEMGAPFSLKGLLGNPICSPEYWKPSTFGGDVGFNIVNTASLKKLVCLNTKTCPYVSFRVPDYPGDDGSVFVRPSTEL
Description: For determining COX-2 activity, proteins were preincubated with 50 μM of aspirin to block the activity of COX-1. After incubation at 37° C. for 15 min, the reaction was terminated by adding 40 μl of 0.2 M HCl. The COX-mediated metabolites of arachidonic acid were extracted with ethyl acetate (3×0.5 ml). The combined extracts were evaporated to dryness under N2, redissolved in chloroform, and subjected to thin layer chromatography on precoated TLC plastic plates (silica G 60, 20×20 cm, layer thickness 150 μm). […] The metabolites of ^14C-AA corresponding to PGE2, PGF2α, PGD2, 6-Keto PGF1α, and TXB2 were detected by their comigration (Rf-values) with authentic standards. The area of each metabolite was determined in a Bioscan System 200 image scanning counter (Bioscan Inc., Washington, D.C.) equipped with β-detector.

in vivo = conditions: male, F344, rat, plasma, oral
iNOS = iNOS (Rattus norvegicus, UniProt Q06518); assay: Colonic mucosal iNOS activity after dietary treatment; format: in vivo, male F344 rats
Description: In Vivo Assay of Modulation of Colonic Mucosal Activities of NOS and COX isoforms by iNOS and COX-2 Inhibitors
NOS and iNOS activities were determined in colonic samples as prepared and described above. Conversion of L-arginine to L-citrulline was measured by a modification of an earlier described method (Rao et al, Carcinogenesis 21, supra; Ambs et al., Cancer Res. 58:334-41, 1998, which is herein incorporated by reference). The assay was carried out by adding 100 μg sample protein to 150 μl of assay buffer [50 mM HEPES, 1 mM DTT, 1 mM MgCl2, 5 mg/L pepstatin A, 0.1 mM PMSF, and 3 mg/L aprotinin, pH 7.4] containing 70 μM arginine, 250,000 dpm L-[^3H]-arginine, 2 mM NADPH, 5μM tetrahydro biopterin, 5 μM flavin adenine dinucleotide, and 0.5 mM CaCi2 to measure total NOS activity, or 1 mM EGTA (without calcium) to determine Ca+^2-independent iNOS activity. After 30 min at 37° C., the reaction was stopped with 100 μl of 1M trichloroacetic acid. Then the samples were adjusted to pH 4.6 by adding 500 μl of 20 mM HEPES and loaded on to Dowex AG 50W-X8 resin columns. L-[^3H]-citrulline was eluted and separated on TLC. Radioactivity was counted by a BioScan Radiomatic detector. Results are expressed as pmol L-[^3H]-citrulline released/mg protein/min.

AOM-induced colonic ACF = assay: Chemopreventive effects in rats with azoxymethane-induced aberrant crypt foci; format: in vivo, male F344 rats; conditions: for Foci containing 1 Crypt / Foci containing 2 Crypt / Foci containing 3 Crypt / Foci containing ≧4 Crypts / Total ACF incidence: AOM-treated male F344 rats, Mean ± SEM
Source text: In Vivo Assay of Chemopreventive Effects of Therapeutic Compounds in Rats with Azoxymethane-induced Aberrant Crypt Foci
Azoxymethane (AOM) (CAS:25843-45-2) was purchased from Ash Stevens (Detroit, Mich.). iNOS and COX-2 selective inhibitors were provided by Pharmacia, (St. Louis, […].). Sulindac, a non-selective inhibitor of COX-isoforms and a known inhibitor of colon carcinogenesis, was supplied by the Chemoprevention Branch of the National Cancer Institute (Bethesda, Md.). Weanling male F344 rats were purchased from Charles River Breeding Laboratories (Kingston, N.Y.). All ingredients of the semipurified diet were obtained from Dyets Inc., (Bethlehem, Pa.) and were stored at 4° C. until the experimental diets were prepared. The rats were held in quarantine for 1 week and had access to modified AIN-76A semipurified control diet (Reddy et al., Cancer Res. 50: 2562-2568, 1990, which is herein incorporated by reference.). They were randomly distributed into various dietary groups and were transferred to an animal holding room where they were housed, three rats to a plastic cage, under controlled conditions of a 12-h light/12-h dark cycle, 50% relative humidity and 21° C. room temperature. Experimental diets were prepared by mixing chemopreventive agents with modified AIN-76A control diet.
To quantify aberrant crypt foci, after a minimum of 24 h in buffered formalin, the colons were cut into 2-cm segments starting at the anus; for the next 5-10 min they were placed in a Petri dish containing 0.2% methylene blue in Krebs Ringer solution. They were then placed, mucosal side up, on a microscope slide and observed through a light microscope. Aberrant crypt foci were recorded according to standard procedures that are being used routinely in our laboratory (Rao et al., Carcinogenesis 21: 617-21, 2000; Rao et al., Cancer Res. 53:4182-88, 1993, which are herein incorporated by reference.). […] The parameters used to assess the aberrant crypts were their occurrence and multiplicity. Crypt multiplicity was determined as the number of crypts in each focus and categorized as containing up to 3, or 4 or more aberrant crypts/focus.

Question: Which “COX-Activity, COX-1” value (COX-1) does the source give for CC(=N)NCCCC[C@H](N)C(=O)Nc1nnn[nH]1 [compound XI, 2S-amino-6-[(1-iminoethyl)amino]-N-(1H-tetrazol-5-yl)hexanamide, hydrate, dihydrochloride] here?
Answer: The value was 11.3 ± 1.4 pmoles [^14C]-AA metabolized/m.

Question: And the concentration at 1 week on diet (in vivo; 10 ppm in diet)?
Answer: Its concentration at 1 week on diet is 461 ng/mL.

Question: And the concentration at 5 weeks on diet (in vivo; 10 ppm in diet)?
Answer: The concentration at 5 weeks on diet was 341 ng/mL.

Question: What about the concentration at 9 weeks on diet (in vivo; 10 ppm in diet) of the same compound?
Answer: The concentration at 9 weeks on diet was 254 ng/mL.

Question: And the concentration at 1 week on diet (in vivo; 20 ppm in diet)?
Answer: Its concentration at 1 week on diet is 1320 ± 71 ng/mL.

Question: And the concentration at 5 weeks on diet (in vivo; 20 ppm in diet)?
Answer: Its concentration at 5 weeks on diet is 821 ± 32 ng/mL.

Question: And the concentration at 9 weeks on diet (in vivo; 20 ppm in diet)?
Answer: Its concentration at 9 weeks on diet is 742 ± 7 ng/mL.

Question: And the concentration at 1 week on diet (in vivo; 100 ppm in diet)?
Answer: Its concentration at 1 week on diet is 4310 ng/mL.

Question: What about the concentration at 5 weeks on diet (in vivo; 100 ppm in diet) of the same compound?
Answer: The concentration at 5 weeks on diet was 2810 ng/mL.

Question: What about the concentration at 9 weeks on diet (in vivo; 100 ppm in diet) of the same compound?
Answer: Its concentration at 9 weeks on diet is 2640 ng/mL.

Question: What about the “suppression of AOM-induced colonic mucosal iNOS activity” value (iNOS; 100 ppm) of the same compound?
Answer: Its value is roughly 37%.

Question: What about the “NOS Activity, iNOS” value (iNOS; 100 ppm in diet, AOM-treated rats, colonic mucosa, Mean ± SEM) of the same compound?
Answer: Its value is 1.6 ± 0.2 pmoles [^3H]-citrulline/mg pro.

Question: And the “Foci containing 1 Crypt” value (AOM-induced colonic ACF; 10 ppm in diet)?
Answer: Its value is 28.2 ± 1.8.

Question: And the “Foci containing 2 Crypt” value (AOM-induced colonic ACF; 10 ppm in diet)?
Answer: Its value is 31.7 ± 2.7.

Question: And the “Foci containing 3 Crypt” value (AOM-induced colonic ACF; 10 ppm in diet)?
Answer: The value was 29.3 ± 2.3.

Question: And the “Foci containing ≧4 Crypts” value (AOM-induced colonic ACF; 10 ppm in diet)?
Answer: Its value is 25.6 ± 1.8.

Question: And the “Total ACF incidence” value (AOM-induced colonic ACF; 10 ppm in diet)?
Answer: Its value is 115 ± 4.8.

Question: And the “Foci containing 1 Crypt” value (AOM-induced colonic ACF; 30 ppm in diet)?
Answer: The value was 28.7 ± 2.9.

Question: What about the “Foci containing 2 Crypt” value (AOM-induced colonic ACF; 30 ppm in diet) of the same compound?
Answer: The value was 32.6 ± 1.8.

Question: What about the “Foci containing 3 Crypt” value (AOM-induced colonic ACF; 30 ppm in diet) of the same compound?
Answer: Its value is 24.8 ± 1.7.

Question: What about the “Foci containing ≧4 Crypts” value (AOM-induced colonic ACF; 30 ppm in diet) of the same compound?
Answer: The value was 22 ± 2.7.

Question: What about the “Total ACF incidence” value (AOM-induced colonic ACF; 30 ppm in diet) of the same compound?
Answer: The value was 108 ± 5.5.

Question: What about the “Foci containing 1 Crypt” value (AOM-induced colonic ACF; 100 ppm in diet) of the same compound?
Answer: The value was 28.6 ± 2.2.

Question: What about the “Foci containing 2 Crypt” value (AOM-induced colonic ACF; 100 ppm in diet) of the same compound?
Answer: The value was 33.6 ± 2.1.

Question: What about the “Foci containing 3 Crypt” value (AOM-induced colonic ACF; 100 ppm in diet) of the same compound?
Answer: Its value is 17.7 ± 1.1.

Question: And the “Foci containing ≧4 Crypts” value (AOM-induced colonic ACF; 100 ppm in diet)?
Answer: The value was 13.9 ± 1.1.

Question: What about the “Total ACF incidence” value (AOM-induced colonic ACF; 100 ppm in diet) of the same compound?
Answer: The value was 93.8 ± 4.2.

Question: And the “effect on AOM-induced total colonic ACF and multicrypt clusters of 4 or more crypts” value (AOM-induced colonic ACF; 100 ppm, compared to control diet)?
Answer: Its value is “suppressed”.
